{"source": "patent US20260293896A1", "about": "“PLANT GROWTH REGULATOR, PLANT GROWTH ACCELERATION METHOD, OR PLANT GROWTH-REGULATING PRODUCT” (KUREHA CORPORATION, priority 2022, published 2026)", "assay_type_in_all_cases": "in vivo", "key": {"[1]": {"test_system": "rapeseed", "experiment": "Evaluation Example 3: Comparison of Elongated Plant Height of Rapeseed", "settings": "petri dish, 5 mL, 24° C, 7th day after seeding, EGT 1 mM and/or Arg 1 mM", "description": "The plant growth regulators of Example 6 and Comparative Examples 8 and 9 were prepared so as to attain the concentrations indicated in Table 3 below. EGT and Arg were commercially available products, and pure water was used as a solvent.\n(§1) Into a 9 cm petri dish on which filter paper was spread, 5 mL of the plant growth regulator was added. Seven seeds of rapeseed were sown per one petri dish. In a thermostatic chamber set at room temperature of 24° C., the light period was 16 hours and the dark period was 8 hours. The light conditions were set using a fluorescent lamp (PLANT FLEC, 40 W LED fluorescent lamp for plant growth, electric bulb color, available from Nippon Medical and Chemical Instruments Co., Ltd.) such that the light intensity was 5000 lx in the central part under irradiation with the fluorescent lamp.\n(§2) The plant height of the rapeseed on the 7th day after seeding was evaluated."}, "[2]": {"test_system": "rapeseed", "experiment": "Evaluation Example 7: Comparison of Elongated Plant Height of Rapeseed", "settings": "petri dish, 5 mL, 24° C, 7th day after seeding, EGT 0.5 mM and/or uracil 0.5 mM", "description": "The plant growth regulators of Example 18 and Comparative Examples 24 and 25 were prepared so as to attain the concentrations indicated in Table 7 below. EGT and uracil were commercially available products, and pure water was used as a solvent.\nas §1, with “Ten” for “Seven”\nas §2"}, "[3]": {"test_system": "wheat", "experiment": "Evaluation Example 8: Comparison of Elongated Plant Height of Wheat", "settings": "petri dish, 5 mL, 24° C, 7th day after seeding, EGT 0.5 mM and/or component (A) 0.5 mM", "description": "The plant growth regulators of Examples 19 and 20 and Comparative Examples 26 to 28 were prepared so as to attain the concentrations indicated in Table 8 below. EGT, guanine and thymine were commercially available products, and pure water was used as a solvent.\nas §1, with “Ten” for “Seven”, “wheat” for “rapeseed”\n(§3) The plant height of the wheat on the 7th day after seeding was evaluated."}, "[4]": {"test_system": "wheat", "experiment": "Evaluation Example 9: Comparison of Elongated Plant Height of Wheat", "settings": "petri dish, 5 mL, 24° C, 7th day after seeding, EGT 0.5 mM and/or component (A) 0.5 mM", "description": "The plant growth regulators of Examples 21 and 22 and Comparative Examples 29 to 31 were prepared so as to attain the concentrations indicated in Table 9 below. EGT, trehalose and inositol were commercially available products, and pure water was used as a solvent.\nas §1, with “Ten” for “Seven”, “wheat” for “rapeseed”\nas §3"}, "[5]": {"test_system": "tomato (Micro Tom)", "experiment": "Evaluation Example 12: Comparison of Number of Flowers and Buds of Tomato", "settings": "50 mL on 32nd, 34th, 36th days, evaluated 83rd day after seeding, EGT 0.1 mM and/or component (A) 0.1 mM", "description": "The plant growth regulators of Examples 32 and 33 and Comparative Examples 43 to 45 were prepared so as to attain the concentrations indicated in Table 12 below. EGT, Arg and Glu were commercially available products, and pure water was used as a solvent.\nIn a plastic pot having a diameter of 135 mm and a height of 110 mm, 1 kg of granular soil (Kumiai horticultural soil) was placed, and one individual tomato (Micro Tom) was sown per one pot.\nThe tomato was managed in a greenhouse set at room temperature of 25° C. Chemical treatment was started 5 weeks after seeding. More specifically, on the 32nd, 34th, and 36th days after seeding, 50 mL of the plant growth regulator was added.\nOn the 83rd day after seeding, the number of flowers and buds was evaluated."}, "[6]": {"test_system": "wheat", "experiment": "Evaluation Example 15: Comparison of Elongated Plant Height of Wheat", "settings": "petri dish, 5 mL, 24° C, 7th day after seeding, EGT 1 mM and/or carnitine 10 mM", "description": "The plant growth regulators of Example 36 and Comparative Examples 50 and 51 were prepared so as to attain the concentrations indicated in Table 15 below. EGT and carnitine were commercially available products, and pure water was used as a solvent.\nas §1, with “Ten” for “Seven”, “wheat” for “rapeseed”\nas §3"}, "[7]": {"test_system": "wheat", "experiment": "Evaluation Example 16: Comparison of Elongated Plant Height of Wheat", "settings": "petri dish, 5 mL, 24° C, 7th day after seeding, EGT 1 mM and/or trehalose 0.01 or 0.1 mM", "description": "The plant growth regulators of Examples 37 and 38 and Comparative Examples 52 to 54 were prepared so as to attain the concentrations indicated in Table 16 below. EGT and trehalose were commercially available products, and pure water was used as a solvent.\nas §1, with “Ten” for “Seven”, “wheat” for “rapeseed”\nas §3"}}, "data": [{"smiles": "C[N+](C)(C)[C@@H](Cc1c[nH]c(=S)[nH]1)C(=O)[O-]", "note": "[Comparative Example 8, L-(+)-ergothioneine]", "values": [{"measurement": "Elongated plant height, ratio to untreated control", "setting": "[1]", "result": 1.2}]}, {"smiles": "N=C(N)NCCC[C@H](N)C(=O)O", "note": "[Comparative Example 9, L-arginine]", "values": [{"measurement": "Elongated plant height, ratio to untreated control", "setting": "[1]", "result": 0.9}]}, {"smiles": "C[N+](C)(C)[C@@H](Cc1c[nH]c(=S)[nH]1)C(=O)[O-]", "note": "[Comparative Example 24, L-(+)-ergothioneine]", "values": [{"measurement": "Elongated plant height, ratio to untreated control", "setting": "[2]", "result": 1.1}]}, {"smiles": "O=c1cc[nH]c(=O)[nH]1", "note": "[Comparative Example 25, uracil]", "values": [{"measurement": "Elongated plant height, ratio to untreated control", "setting": "[2]", "result": 1.0}]}, {"smiles": "C[N+](C)(C)[C@@H](Cc1c[nH]c(=S)[nH]1)C(=O)[O-]", "note": "[Comparative Example 26, L-(+)-ergothioneine]", "values": [{"measurement": "Elongated plant height, ratio to untreated control", "setting": "[3]", "result": 1.1}]}, {"smiles": "C[N+](C)(C)[C@@H](Cc1c[nH]c(=S)[nH]1)C(=O)[O-]", "note": "[Comparative Example 29, L-(+)-ergothioneine]", "values": [{"measurement": "Elongated plant height, ratio to untreated control", "setting": "[4]", "result": 1.1}]}, {"smiles": "C[N+](C)(C)[C@@H](Cc1c[nH]c(=S)[nH]1)C(=O)[O-]", "note": "[Comparative Example 43, L-(+)-ergothioneine]", "values": [{"measurement": "Total number of flowers and buds, ratio to untreated control", "setting": "[5]", "result": 1.1}]}, {"smiles": "C[N+](C)(C)[C@@H](Cc1c[nH]c(=S)[nH]1)C(=O)[O-]", "note": "[Comparative Example 50, L-(+)-ergothioneine]", "values": [{"measurement": "Elongated plant height, ratio to untreated control", "setting": "[6]", "result": 1.1}]}, {"smiles": "C[N+](C)(C)CC(O)CC(=O)[O-]", "note": "(stereo not drawn) [Comparative Example 51, carnitine]", "values": [{"measurement": "Elongated plant height, ratio to untreated control", "setting": "[6]", "result": 1.0}]}, {"smiles": "C[N+](C)(C)[C@@H](Cc1c[nH]c(=S)[nH]1)C(=O)[O-]", "note": "[Comparative Example 52, L-(+)-ergothioneine]", "values": [{"measurement": "Elongated plant height, ratio to untreated control", "setting": "[7]", "result": 1.1}]}, {"smiles": "Nc1nc2nc[nH]c2c(=O)[nH]1", "note": "[compound 27, guanine]", "values": [{"measurement": "Elongated plant height, ratio to untreated control", "setting": "[3]", "result": 0.9}]}, {"smiles": "Cc1c[nH]c(=O)[nH]c1=O", "note": "[compound 28, thymine]", "values": [{"measurement": "Elongated plant height, ratio to untreated control", "setting": "[3]", "result": 0.9}]}, {"smiles": "OC[C@H]1O[C@H](O[C@H]2O[C@H](CO)[C@@H](O)[C@H](O)[C@H]2O)[C@H](O)[C@@H](O)[C@@H]1O", "note": "[compound 30, trehalose]", "values": [{"measurement": "Elongated plant height, ratio to untreated control", "setting": "[4]", "result": 1.0}]}, {"smiles": "O[C@H]1[C@H](O)[C@@H](O)[C@H](O)[C@@H](O)[C@H]1O", "note": "[compound 31, inositol]", "values": [{"measurement": "Elongated plant height, ratio to untreated control", "setting": "[4]", "result": 0.9}]}, {"smiles": "N=C(N)NCCC[C@H](N)C(=O)O", "note": "[compound 44, L-arginine]", "values": [{"measurement": "Total number of flowers and buds, ratio to untreated control", "setting": "[5]", "result": 1.0}]}, {"smiles": "N[C@@H](CCC(=O)O)C(=O)O", "note": "[compound 45, L-glutamic acid]", "values": [{"measurement": "Total number of flowers and buds, ratio to untreated control", "setting": "[5]", "result": 1.0}]}, {"smiles": "OC[C@H]1O[C@H](O[C@H]2O[C@H](CO)[C@@H](O)[C@H](O)[C@H]2O)[C@H](O)[C@@H](O)[C@@H]1O", "note": "[compound 53, trehalose]", "values": [{"measurement": "Elongated plant height, ratio to untreated control", "setting": "[7]", "result": 1.0}]}, {"smiles": "OC[C@H]1O[C@H](O[C@H]2O[C@H](CO)[C@@H](O)[C@H](O)[C@H]2O)[C@H](O)[C@@H](O)[C@@H]1O", "note": "[compound 54, trehalose]", "values": [{"measurement": "Elongated plant height, ratio to untreated control", "setting": "[7]", "result": 0.9}]}]}
